Patent publication US20230293509A1, “METHOD AND COMPOUND FOR USE, IN TREATING AND/OR PREVENTING NETOSIS” (JUBILANT EPIPAD LLC, priority 2020, published 2023)

Columns and labels:
DSS-induced colitis = assay: Dextran sulfate sodium (DSS) induced colitis model; type: in vivo, C57BL/6 male mice; conditions: 1 mg/kg, QD, oral; day 10
Text: Ulcerative colitis (UC) is an intermittent inflammatory bowel disease of the colonic mucosa, with periods of exacerbated symptoms (the active phase of the disease), and periods that are relatively symptom-free (remission phase of disease). Among various chemical induced colitis models, DSS-induced colitis model is widely used because of its simplicity and many similarities with human ulcerative colitis. C57BL/6 male mice at 6-8 weeks of age were purchased from vivo biotech India (under the license from Taconic). The procedures involving the care and use of animals in the study was reviewed and approved by the Institutional Animal Care and Use Committee (IAEC/JDC/2018-161R) prior to conduct. During the study, the care and use of animals was in accordance with the principles outlined in the Guide for the Care and Use of Laboratory Animals, 8th Edition, 2010 (National Research Council) and every effort was made to minimize suffering. The animals were acclimatized for ˜10 days prior to experimental use. Mice were caged with free access to food and fresh water in a temperature-controlled room (22° C.-24° C.) on a 12 h light/dark cycle. […]

[1] = test system: silica induced lung fibrosis; assay: Silica induced pro-fibrotic lung model; type: in vivo, C57BL/6 female mice; conditions: 50 mg/kg PO, BID, day 7 to 11, comparable to Nintedanib 100 mg/kg, QD
Procedure: The instillation of silica into the murine lung results in the development of fibrotic nodules that resemble simple silicotic nodular fibrosis, which develop in humans following some occupational exposures to dust and particulate aerosols. Silica can be delivered to rodents via aerosolization, intratracheal administration or oropharyngeal aspiration. C57BL/6 female mice at an age of 6-8 weeks were instilled with silica particles (2.5 mg/mouse) by non-surgical intratracheal (IT) method. The day of silica instillation was defined as day 0. Test compound was administered twice daily and standard of care was dosed once daily from day 7 to 11 for therapeutic intervention. Animals were monitored and evaluated for their clinical signs and body weight loss. Animals were euthanized on day 11 and the lungs were weighed and biomarkers were analyzed in lung.

4T1 cells = assay: Murine breast cancer efficacy model, 4T1 allograft; type: in vivo, Balb/C female mice; conditions: 4T1 bearing mice, oral gavage twice daily for 14 days
Procedure: (§1) PAD4 is highly expressed in malignant tumours of various cell types, Here, the mouse mammary carcinoma of 4T1 and EMT6 cells were used as an experimental model. Mouse 4T1, and EMT-6, a breast cancer cell line was sourced from American Type Culture Collection (ATCC), USA. Cells were grown according to the product information. To establish allografts, the cells were harvested by trypsinization when they reached around 70 to 80% confluence. After harvesting, Balb/C female mice (7-8 weeks) were implanted with 4T1 (1 million cells/site) and EMT-6 (0.5 million cells/site) subcutaneously in the dorsal right flank of mice using a 1 mL BD syringe attached to a 24-gauge needle. When the tumors became palpable tumor measurement was initiated and at an approximate tumor volume of ˜110 and 93 mm3, respectively. Animals were randomized into different treatment groups keeping tumor volume and the number of animals/group similar across the groups and compound 143 treatment was initiated. […]
(§2) Tumor dimensions (length and breadth) were measured on days 1 (animal randomization based on tumor volume) and thrice weekly thereafter until study termination.
(§3) Tumor volumes were calculated using the formula (b2*1)*0.52 where 1=length, b=breadth (Dusan Djokovic et al., BMC Cancer, 2010, 10:641). […]

[2] = test system: Bleomycin (BLM)-induced mice fibrosis; assay: Bleomycin induced lung fibrosis model; type: in vivo, C57BL/6 male mice; conditions: 50 mg/kg, PO, BID
Text: Bleomycin (BLM)-induced mice fibrosis is a well-established animal model used to study pathogenesis of lung fibrosis and to estimate the potential anti-fibrotic agents. C57BL/6 male mice at 6-8 weeks of age were purchased from vivo biotech India (under the license from Taconic). The procedures involving the care and use of animals in the study was reviewed and approved by the Institutional Animal Care and Use Committee (IAEC/JDC/2018-161R) prior to conduct. During the study, the care and use of animals was in accordance with the principles outlined in the Guide for the Care and Use of Laboratory Animals, 8th Edition, 2010 (National Research Council) and every effort was made to minimize suffering. The animals were acclimatized for 7 days prior to experimental use. Mice were caged with free access to food and fresh water in a temperature-controlled room (22° C.-24° C.) on a 12 h light/dark cycle. Pulmonary fibrosis was induced by invasive method in animals using single intra-tracheal administration of 50 μg bleomycin prepared in 50 μL of saline under isoflurane anaesthesia. […] Animals were monitored and evaluated for their body weight loss. […] Fibronectin was measured as a PD biomarker by RT-qPCR and fold change in mRNA level was calculated after normalizing to GAPDH. […] The Modified Ashcroft Index score was determined for the vehicle-treated control mice and the test compound treated mice.

EMT-6 cells = assay: Murine breast cancer efficacy model, EMT-6 allograft; type: in vivo, Balb/C female mice; conditions: EMT-6 bearing mice, oral gavage twice daily for 13 days
Procedure: as §1, §2, §3

Compound	Disease reversal (DAI) compared to disease control (DSS-induced colitis)	Fibronectin level in lung [1]	Lung weight [1]	Body weight changes (4T1 cells)	Lung weight ([2]; day 0 to 14, compared with Nintedanib 100 mg/kg, QD)	Fibronectin mRNA in lung (RT-qPCR) ([2]; day 0 to 14, compared with Nintedanib)	Body weight changes (EMT-6 cells)
CCCCCCCCc1ccc(CCC(N)(CO)CO)cc1 [Fingolimod]	~58.9%	–	–	–	–	–	–
N[C@@H]1CCCN(C(=O)c2cc3c4c(c2)nc(-c2cc5cccc(Cl)c5n2CC2CC2)n4CCO3)C1 [Compound 143, (R)-(3-aminopiperidin-1-yl)(2-(7-chloro-1-(cyclopropylmethyl)-1H-indol-2-yl)-3,4-dihydro-5-oxa-1,2a-diazaacenaphthylen-7-yl)methanone]	–	significant decrease	significant decrease	no significant body weight changes	reduction in lung weight comparable to standard of care Nintedanib	stronger reduction of fibronectin mRNA as compared to Nintedanib	no significant body weight changes
